Assays:
HOP-62 = experiment: In vitro growth inhibition against non-small-cell lung cancer HOP-62 cell line was reported.; format: functional; details: Homo sapiens
PC-3 [1] = experiment: In vitro total growth inhibition against prostate cancer PC-3 cell lines was reported.; format: functional; details: Homo sapiens, read-out: Log TGI (converted)
EKVX [2] = experiment: Log of molar concentration leading to 50% cell death against non-small-cell lung cancer EKVX cell line was reported; format: functional; details: Homo sapiens, read-out: Log LC50 (the source's name) (converted)
T47D = experiment: In vitro total growth inhibition against breast cancer […] cell lines was reported.; format: functional; details: Homo sapiens, read-out: Log TGI (converted)
NCI-H522 [3] = experiment: In vitro total growth inhibition against non-small-cell lung cancer NCI-522 cell lines was reported.; format: functional; details: Homo sapiens, read-out: Log TGI (converted)
PC-3 [4] = experiment: In vitro growth inhibition against prostate cancer PC-3 cell line was reported.; format: functional; details: Homo sapiens
SF-539 [5] = experiment: In vitro growth inhibition against CNS cancer SF-539 cell line was reported.; format: functional; details: Homo sapiens
COLO 205 [6] = experiment: Log of molar concentration leading to 50% cell death against colon cancer COLO 205 cell line was reported; format: functional; details: Homo sapiens, read-out: Log LC50 (the source's name) (converted)
Malme-3M = experiment: In vitro growth inhibition against melanoma MALME 3M cell line was reported.; format: functional; details: Homo sapiens
786-0 = experiment: In vitro total growth inhibition against renal cancer […] cell lines was reported.; format: functional; details: Homo sapiens, read-out: Log TGI (converted)
COLO 205 [7] = experiment: In vitro total growth inhibition against colon cancer COLO 205 cell lines was reported.; format: functional; details: Homo sapiens, read-out: Log TGI (converted)
SF-539 [8] = experiment: Log of molar concentration leading to 50% cell death against CNS cancer SF-539 cell line was reported; format: functional; details: Homo sapiens, read-out: Log LC50 (the source's name) (converted)
SNB-75 = experiment: In vitro total growth inhibition against CNS cancer SNB-75 cell lines was reported.; format: functional; details: Homo sapiens, read-out: Log TGI (converted)
SNB-19 = experiment: In vitro growth inhibition against CNS cancer SNB-19 cell line was reported.; format: functional; details: Homo sapiens
SW-620 [9] = experiment: In vitro growth inhibition against colon cancer SW620 cell line was reported.; format: functional; details: Homo sapiens
CCRF-CEM = experiment: In vitro growth inhibition against leukemia CCRF-CEM cell line was reported.; format: functional; details: Homo sapiens
LOX IMVI [10] = experiment: In vitro total growth inhibition against melanoma LOX IMVI cell lines was reported.; format: functional; details: Homo sapiens, read-out: Log TGI (converted)
A498 [11] = experiment: In vitro growth inhibition against renal cancer A498 cell line was reported.; format: functional; details: Homo sapiens
LOX IMVI [12] = experiment: In vitro growth inhibition against melanoma LOX IMVI cell line was reported.; format: functional; details: Homo sapiens
RPMI-8226 = experiment: In vitro growth inhibition against leukemia […] cell line was reported.; format: functional; details: Homo sapiens
MOLT-4 = experiment: In vitro total growth inhibition against leukemia MOLT-4 cell lines was reported.; format: functional; details: Homo sapiens, read-out: Log TGI (converted)
HT-29 = experiment: In vitro growth inhibition against colon cancer HT-29 cell line was reported.; format: functional; details: Homo sapiens
MDA-N = experiment: In vitro total growth inhibition against breast cancer MDA-N cell lines was reported.; format: functional; details: Homo sapiens, read-out: Log TGI (converted)
OVCAR-4 = experiment: In vitro total growth inhibition against ovarian cancer OVCAR-4 cell lines was reported.; format: functional; details: Homo sapiens, read-out: Log TGI (converted)
NCI-H522 [13] = experiment: In vitro growth inhibition against non-small-cell lung cancer […] cell line was reported.; format: functional; details: Homo sapiens
SK-MEL-2 = experiment: In vitro growth inhibition against melanoma SK-MEL-2 cell line was reported.; format: functional; details: Homo sapiens
KM12 = experiment: In vitro total growth inhibition against colon cancer KM12 cell lines was reported.; format: functional; details: Homo sapiens, read-out: Log TGI (converted)
UACC-62 = experiment: In vitro growth inhibition against melanoma UACC-62 cell line was reported.; format: functional; details: Homo sapiens
MDA-MB-435 = experiment: In vitro growth inhibition against breast cancer MDA-MB-435 cell line was reported.; details: Homo sapiens
DU-145 = experiment: In vitro total growth inhibition against prostate cancer […] cell lines was reported.; format: functional; details: Homo sapiens, read-out: Log TGI (converted)
Tumor Cell line [14] = experiment: In vitro inhibition of 50% cell growth was reported as log of molar concentration for 60 cell lines.; format: functional; details: Homo sapiens
Tumor Cell line [15] = experiment: Log of molar concentration leading to 50% cell death was reported; format: functional; details: Homo sapiens, read-out: Log LC50 (the source's name) (converted)
HCT-15 [16] = experiment: In vitro growth inhibition against colon cancer […] cell line was reported.; format: functional; details: Homo sapiens
SR = experiment: In vitro growth inhibition against leukemia SR cell line was reported.; format: functional; details: Homo sapiens
UO-31 = experiment: In vitro total growth inhibition against renal cancer UO-31 cell lines was reported.; format: functional; details: Homo sapiens, read-out: Log TGI (converted)
RXF 393 [17] = experiment: In vitro growth inhibition against renal cancer RXF 393 cell line was reported.; format: functional; details: Homo sapiens
OVCAR-3 [18] = experiment: In vitro growth inhibition against ovarian cancer OVCAR-3 cell line was reported.; format: functional; details: Homo sapiens
CAKI-1 [19] = experiment: In vitro growth inhibition against renal cancer CAKI-1 cell line was reported.; format: functional; details: Homo sapiens
SF-268 = experiment: In vitro growth inhibition against CNS cancer SF-268 cell line was reported.; format: functional; details: Homo sapiens
IGROV-1 = experiment: In vitro growth inhibition against ovarian cancer IGROV1 cell line was reported.; format: functional; details: Homo sapiens
A498 [20] = experiment: In vitro total growth inhibition against renal cancer A-498 cell lines was reported.; format: functional; details: Homo sapiens, read-out: Log TGI (converted)
HCT-116 = experiment: In vitro growth inhibition against colon cancer HCT116 cell line was reported.; format: functional; details: Homo sapiens
NCI/ADR-RES = experiment: In vitro growth inhibition against breast cancer NCI/ADR-RES cell line was reported.; format: functional; details: Homo sapiens
OVCAR-3 [21] = experiment: Log of molar concentration leading to 50% cell death against ovarian cancer OVCAR-3 cell line was reported; format: functional; details: Homo sapiens, read-out: Log LC50 (the source's name) (converted)
CAKI-1 [22] = experiment: In vitro total growth inhibition against renal cancer CAKI-1cell lines was reported.; format: functional; details: Homo sapiens, read-out: Log TGI (converted)
M14 = experiment: In vitro total growth inhibition against melanoma M14 cell lines was reported.; format: functional; details: Homo sapiens, read-out: Log TGI (converted)
U-251 = experiment: In vitro total growth inhibition against CNS cancer U251 cell lines was reported.; format: functional; details: Homo sapiens, read-out: Log TGI (converted)
HCT-15 [23] = experiment: In vitro total growth inhibition against colon cancer HCT-15 cell lines was reported.; format: functional; details: Homo sapiens, read-out: Log TGI (converted)
A549 = experiment: In vitro total growth inhibition against non-small-cell lung cancer A 549/ATCC cell lines was reported.; format: functional; details: Homo sapiens, read-out: Log TGI (converted)
SK-OV-3 = experiment: In vitro growth inhibition against ovarian cancer SK-OV-3 cell line was reported.; format: functional; details: Homo sapiens
RXF 393 [24] = experiment: In vitro total growth inhibition against renal cancer RXF 393 cell lines was reported.; format: functional; details: Homo sapiens, read-out: Log TGI (converted)
HL-60 = experiment: Log of molar concentration leading to 50% cell death against leukemia HL-60(TB) cell line was reported; format: functional; details: Homo sapiens, read-out: Log LC50 (the source's name) (converted)
NCI-H522 [25] = experiment: Log of molar concentration leading to 50% cell death against non-small-cell lung cancer NCI-522 cell line was reported; format: functional; details: Homo sapiens, read-out: Log LC50 (the source's name) (converted)
NCI-H46 = experiment: Log of molar concentration leading to 50% cell death against non-small-cell lung cancer […] cell line was reported; format: functional; details: Homo sapiens, read-out: Log LC50 (the source's name) (converted)
SW-620 [26] = experiment: In vitro total growth inhibition against colon cancer SW-620 cell lines was reported.; format: functional; details: Homo sapiens, read-out: Log TGI (converted)
NCI-H322M = experiment: Log of molar concentration leading to 50% cell death against non-small-cell lung cancer NCI-H322M cell line was reported; format: functional; details: Homo sapiens, read-out: Log LC50 (the source's name) (converted)
UACC-257 = experiment: In vitro total growth inhibition against melanoma UACC-257 cell lines was reported.; format: functional; details: Homo sapiens, read-out: Log TGI (converted)
Hs-578T = experiment: In vitro growth inhibition against breast cancer HS 578T cell line was reported.; format: functional; details: Homo sapiens
OVCAR-8 = experiment: Log of molar concentration leading to 50% cell death against ovarian cancer OVCAR-8 cell line was reported; format: functional; details: Homo sapiens, read-out: Log LC50 (the source's name) (converted)
EKVX [27] = experiment: In vitro growth inhibition against non-small-cell lung cancer EKVX cell line was reported.; format: functional; details: Homo sapiens
SF-539 [28] = experiment: In vitro total growth inhibition against CNS cancer SF-539 cell lines was reported.; format: functional; details: Homo sapiens, read-out: Log TGI (converted)

Structure (SMILES): O=C(Nc1nccs1)c1cc2c(cc1Cl)Sc1nccn1S2(=O)=O
- GI50 (HOP-62): 14.8 µM
- TGI (PC-3 [1]): 33.1 µM
- CC50 (EKVX [2]): 97.7 µM
- TGI (T47D): 64.6 µM
- TGI (NCI-H522 [3]): 2.82 µM
- GI50 (PC-3 [4]): 17 µM
- GI50 (SF-539 [5]): 19.5 µM
- CC50 (COLO 205 [6]): 56.2 µM
- GI50 (Malme-3M): 20 µM
- TGI (786-0): 29.5 µM
- TGI (COLO 205 [7]): 30.9 µM
- CC50 (SF-539 [8]): 72.4 µM
- TGI (SNB-75): 35.5 µM
- GI50 (SNB-19): 19.1 µM
- GI50 (SW-620 [9]): 17 µM
- GI50 (CCRF-CEM): 5.01 µM
- TGI (LOX IMVI [10]): 25.7 µM
- GI50 (A498 [11]): 19.1 µM
- GI50 (LOX IMVI [12]): 11 µM
- GI50 (RPMI-8226): 9.33 µM
- TGI (MOLT-4): 41.7 µM
- GI50 (HT-29): 20 µM
- TGI (MDA-N): 33.1 µM
- TGI (OVCAR-4): 38.9 µM
- GI50 (NCI-H522 [13]): 1.23 µM
- GI50 (SK-MEL-2): 17.4 µM
- TGI (KM12): 26.3 µM
- GI50 (UACC-62): 14.5 µM
- GI50 (MDA-MB-435): 17.4 µM
- TGI (DU-145): 30.2 µM
- GI50 (Tumor Cell line [14]): 28.2 µM
- CC50 (Tumor Cell line [15]): 97.7 µM
- GI50 (HCT-15 [16]): 12.3 µM
- GI50 (SR): 3.02 µM
- TGI (UO-31): 14.8 µM
- GI50 (RXF 393 [17]): 19.1 µM
- GI50 (OVCAR-3 [18]): 15.1 µM
- GI50 (CAKI-1 [19]): 8.51 µM
- GI50 (SF-268): 19.1 µM
- GI50 (IGROV-1): 11.7 µM
- TGI (A498 [20]): 34.7 µM
- GI50 (HCT-116): 16.2 µM
- GI50 (NCI/ADR-RES): 19.1 µM
- CC50 (OVCAR-3 [21]): 53.7 µM
- TGI (CAKI-1 [22]): 37.2 µM
- TGI (M14): 34.7 µM
- TGI (U-251): 30.9 µM
- TGI (HCT-15 [23]): 33.9 µM
- TGI (A549): 63.1 µM
- GI50 (SK-OV-3): 24.5 µM
- TGI (RXF 393 [24]): 39.8 µM
- CC50 (HL-60): 70.8 µM
- CC50 (NCI-H522 [25]): 6.61 µM
- CC50 (NCI-H46): 55 µM
- TGI (SW-620 [26]): 41.7 µM
- CC50 (NCI-H322M): 64.6 µM
- TGI (UACC-257): 26.9 µM
- GI50 (Hs-578T): 28.2 µM
- CC50 (OVCAR-8): 79.4 µM
- GI50 (EKVX [27]): 20.4 µM
- TGI (SF-539 [28]): 37.2 µM

Reference: ChEMBL document CHEMBL1135808, “A new type of mixed anhydride and its applications to the synthesis of 7-substituted 8-chloro-5,5-dioxoimidazo[1,2-b][1,4,2]benzodithiazines with in vitro antitumor activity” (2002)
